From patent US10239849B2 (Merck Sharp & Dohme Corp., priority 2015, dated 2019) come the findings set out here.

The target of assay [1] is T1, glutathione-S-transferase (GST) tagged LXRbeta LBD (ligand binding domain) (Homo sapiens, UniProt P55055).
T1 construct: purchased Invitrogen pv4658.pps
T1 sequence (P55055 222-460 limits assumed): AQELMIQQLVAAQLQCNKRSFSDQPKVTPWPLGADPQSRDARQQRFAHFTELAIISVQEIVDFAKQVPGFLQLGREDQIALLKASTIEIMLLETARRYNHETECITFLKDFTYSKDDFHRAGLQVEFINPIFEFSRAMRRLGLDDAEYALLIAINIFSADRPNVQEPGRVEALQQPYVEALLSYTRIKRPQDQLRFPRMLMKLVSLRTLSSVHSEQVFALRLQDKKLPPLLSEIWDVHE
Kind of assay: LanthaScreen TR-FRET Liver X Receptor Coactivator Assay, LXR beta-LBD. Format: biochemical. To be noted: for Emax: read-out: LXR beta activity at max dose (%) (Emax); for EC50: potency (Inflection Point) of co-activator recruitment, TR-FRET, read-out: LXR beta IP. A digest of the protocol: (§1)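 LXR alpha- or beta-LBD was added to test compounds, then a mix of fluorescein-labelled coactivator peptide and terbium anti-GST antibody. After room-temperature incubation, TR-FRET was read on a filter-based reader.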
(TR-FRET usually uses a lanthanide donor and a delayed reading to cut background.)

For assay [2], the target named is T2, glutathione-S-transferase (GST) tagged LXRalpha LBD (ligand binding domain) (Homo sapiens, UniProt Q13133).
T2 construct: purchased Invitrogen pv4655
T2 sequence (Q13133 209-447 limits assumed): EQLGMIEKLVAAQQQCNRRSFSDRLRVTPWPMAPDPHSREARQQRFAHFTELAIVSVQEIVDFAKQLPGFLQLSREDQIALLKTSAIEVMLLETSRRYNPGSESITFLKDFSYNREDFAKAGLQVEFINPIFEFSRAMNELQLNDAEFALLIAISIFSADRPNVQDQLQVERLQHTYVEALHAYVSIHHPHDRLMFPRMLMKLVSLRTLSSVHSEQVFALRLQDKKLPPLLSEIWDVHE
Kind of assay: LanthaScreen TR-FRET Liver X Receptor Coactivator Assay, LXR alpha-LBD. Particulars: for Emax: read-out: LXR alpha activity at max dose (%) (Emax); for EC50: read-out: LXR alpha IP. The format is biochemical. In a few lines:
as §1

[3] abbreviates: efficacy in relation to reference dual agonist T1317.
[4] abbreviates: potency (Inflection Point) of co-activator recruitment, TR-FRET.

As to `CN(Cc1cnn(C)c1)C(=O)c1ccc(-c2cnc(N3CCN(C(=O)OC(C)(C)C)CC3)c(C#N)c2)cc1Cl` [Example 5-22, tert-butyl 4-[5-(3-chloro-4-{methyl[(1-methyl-1H-pyrazol-4-yl)methyl]carbamoyl}phenyl)-3-cyanopyridin-2-yl]piperazine-1-carboxylate], the results for the Emax in assay [1] (setting [3]) and in assay [2] (setting [3]) were 65% and 34%, respectively. Besides, the EC50 in assay [1] was 382 nM; in assay [2] (setting [4]), 9700 nM.

For `CN(C)C(=O)c1ccc(-c2cnc(N3CCN(C(=O)[C@@](C)(O)C(F)(F)F)CC3)c(C#N)c2)cc1Cl` [Example 2-15, 2-chloro-4-(5-cyano-6-{4-[(2R)-3,3,3-trifluoro-2-hydroxy-2-methylpropanoyl]piperazin-1-yl}pyridin-3-yl)-N,N-dimethylbenzamide], the results for the maximal effect (Emax) in assay [1] (setting [3]) and in assay [2] (setting [3]) were 101% and 58%, respectively. The values for the EC50 in assay [1] and in assay [2] (setting [4]) were 171 nM and 13100 nM, respectively.

With `CN(CCn1cncn1)C(=O)c1ccc(-c2cnc(N3CCN(C(=O)OC(C)(C)C)CC3)c(C#N)c2)cc1Cl` [Example 5-24, tert-butyl 4-[5-(3-chloro-4-{methyl[2-(1H-1,2,4-triazol-1-yl)ethyl]carbamoyl}phenyl)-3-cyanopyridin-2-yl]piperazine-1-carboxylate], the Emax (commonly the greatest response seen or fitted, relative to the assay's reference) in assay [1] (setting [3]) was 71%; in assay [2] (setting [3]) it was 52%. Also, the EC50 in assay [1] is 118 nM; in assay [2] (setting [4]) it was 8460 nM.

As to `CN(C)C(=O)c1ccc(-c2cnc(N3CCN(S(=O)(=O)c4ccccc4C(F)(F)F)CC3)c(C#N)c2)cc1Cl` [Example 1-13, 2-chloro-4-[5-cyano-6-(4-{[2-(trifluoromethyl)phenyl]sulfonyl}piperazin-1-yl)pyridin-3-yl]-N,N-dimethylbenzamide], the Emax in assay [1] (setting [3]) turned out to be 127%; in assay [2] (setting [3]) it was 60%. Also, the EC50 in assay [1] is 11 nM; in assay [2] (setting [4]), 1000 nM.

Take `CN(C)C(=O)c1ccc(-c2cnc(N3CCN(S(=O)(=O)C4CCCCC4)CC3)c(C#N)c2)cc1Cl` [Example 1-7, 2-chloro-4-{5-cyano-6-[4-(cyclohexylsulfonyl)piperazin-1-yl]pyridin-3-yl}-N,N-dimethylbenzamide]: the Emax in assay [1] (setting [3]) turned out to be 79%; in assay [2] (setting [3]) it was 39%. The results for the EC50 in assay [1] and in assay [2] (setting [4]) were 337 nM and 14200 nM, respectively.

As for `CC(C)(C)OC(=O)N1CCN(c2ncc(-c3ccc(C(=O)N(CCCO)C4CC4)c(Cl)c3)cc2C#N)CC1` [Example 5-20, tert-butyl 4-(5-{3-chloro-4-[cyclopropyl(3-hydroxypropyl)carbamoyl]phenyl}-3-cyanopyridin-2-yl)piperazine-1-carboxylate], the figures for the maximal response (Emax) in assay [1] (setting [3]) and in assay [2] (setting [3]) were 55% and 31%, respectively. Besides, the EC50 in assay [1] was found to be 565 nM; in assay [2] (setting [4]), 4070 nM.

Regarding `CC(C)C(=O)C(=O)N1CCN(c2ncc(-c3cc(Cl)c(C(=O)N(C)C)c(Cl)c3)cc2C#N)CC1` [Example 7-2, 2,6-dichloro-4-{5-cyano-6-[4-(3-methyl-2-oxobutanoyl)piperazin-1-yl]pyridin-3-yl}1-N,N-dimethylbenzamide], the Emax in assay [1] (setting [3]) was found to be 88%; in assay [2] (setting [3]), 30%. Further, the EC50 was found to be 32 nM in assay [1] and 2040 nM in assay [2] (setting [4]).

Consider `CN(C)C(=O)c1ccc(-c2cnc(N3CCN(C(=O)C4(c5ccc(Cl)cc5Cl)CC4)CC3)c(C#N)c2)cc1Cl` [Example 2-34, 2-chloro-4-[5-cyano-6-(4-{[1-(2,4-dichlorophenyl)cyclopropyl]carbonyl}piperazin-1-yl)pyridin-3-yl]-N,N-dimethylbenzamide], for which the maximum response (Emax) in assay [1] (setting [3]) amounted to 88%; in assay [2] (setting [3]) it was 49%. For the same compound, the EC50 in assay [1] was determined as 25 nM; in assay [2] (setting [4]), 12700 nM.

Turning to `CCCC(O)(C(=O)N1CCN(c2ncc(-c3ccc(C(=O)N(C)C)c(Cl)c3)cc2C#N)CC1)C(F)(F)C(F)(F)F` (stereo not shown) [Example 2-36, 2-chloro-4-(5-cyano-6-{4-[2-hydroxy-2-(pentafluoroethyl)pentanoyl]piperazin-1-yl}pyridin-3-yl)-N,N-dimethylbenzamide], the Emax in assay [1] (setting [3]) was 81%; in assay [2] (setting [3]), 36%. In addition, the results for the EC50 in assay [1] and in assay [2] (setting [4]) were 205 nM and 5130 nM, respectively.

In the case of `CN(C)C(=O)c1ccc(-c2ccc(N3CCN(C(=O)c4ccccc4Cl)CC3)cc2)cc1Cl` [Example 4-15, 3-chloro-4′-{4-[(2-chlorophenyl)carbonyl]piperazin-1-yl}-N,N-dimethylbiphenyl-4-carboxamide], the Emax in assay [1] (setting [3]) came out at 85%; in assay [2] (setting [3]), 16%. Further, the EC50 in assay [1] was found to be 1670 nM. In addition, the “LXR alpha IP (nM)” value in assay [2] (setting [4]) is on record as “No IP”.

As for `CN(C)C(=O)c1ccc(-c2cnc(N3CCN(C(=O)C4(c5ccccc5)CCC4)CC3)c(C#N)c2)cc1Cl` [Example 2-23, 2-chloro-4-(5-cyano-6-{4-[(1-phenylcyclobutyl)carbonyl]piperazin-1-yl}pyridin-3-yl)-N,N-dimethylbenzamide], the Emax in assay [1] (setting [3]) was 97%; in assay [2] (setting [3]), 47%. In addition, the results for the EC50 in assay [1] and in assay [2] (setting [4]) were 43 nM and 1140 nM, respectively.

As for `CN(C)C(=O)c1ccc(-c2cnc(N3CCN(C(=O)OCc4ccccc4C(F)(F)F)CC3)c(C#N)c2)cc1Cl` [Example 3-11, 2-(trifluoromethyl)benzyl 4-{5-[3-chloro-4-(dimethylcarbamoyl)phenyl]-3-cyanopyridin-2-yl}piperazine-1-carboxylate], the values for the Emax in assay [1] (setting [3]) and in assay [2] (setting [3]) were 96% and 39%, respectively. In addition, the results for the EC50 in assay [1] and in assay [2] (setting [4]) were 79 nM and 1200 nM, respectively.

As to `CC(C)C(O)(C(=O)N1CCN(c2ncc(-c3cc(Cl)c(C(=O)N(C)C)c(Cl)c3)cc2C#N)CC1)C(F)(F)F` (single isomer, unassigned) [Example 7-6, 2,6-dichloro-4-(5-cyano-6-{4-[2-hydroxy-3-methyl-2-(trifluoromethyl)butanoyl]piperazin-1-yl}pyridin-3-yl)-N,N-dimethylbenzamide], the “LXR beta activity at max dose (%) (Emax)” value in assay [1] (setting [3]) is recorded as 79%. For the same compound, the EC50 in assay [1] turned out to be 34 nM; in assay [2] (setting [4]), 760 nM. Besides, the “LXR alpha activity at max dose (%) (Emax)” value in assay [2] (setting [3]) is listed as 28%.

With `CCc1cc(-c2cnc(N3CCN(C(=O)OC(C)(C)C)CC3)c(C#N)c2)ccc1C(=O)N(C)C` [Example 8-17, tert-butyl 4-{3-cyano-5-[4-(dimethylcarbamoyl)-3-ethylphenyl]pyridin-2-yl}piperazine-1-carboxylate], the results for the maximal response (Emax) in assay [1] (setting [3]) and in assay [2] (setting [3]) were 71% and 41%, respectively. Besides, the EC50 in assay [1] stood at 424 nM; in assay [2] (setting [4]), 7470 nM.

In the case of `CCCCC(C)(C)C(=O)N1CCN(c2ncc(-c3ccc(C(=O)N(C)C)c(Cl)c3)cc2C#N)CC1` [Example 2-12, 2-chloro-4-{5-cyano-6-[4-(2,2-dimethylhexanoyl)piperazin-1-yl]pyridin-3-yl}-N,N-dimethylbenzamide], the results for the Emax in assay [1] (setting [3]) and in assay [2] (setting [3]) were 79% and 43%, respectively. In addition, the EC50 in assay [1] was determined as 27 nM; in assay [2] (setting [4]), 1750 nM.

As for `CC(C)(C)OC(=O)N1CCN(c2ncc(-c3ccc(C(=O)N(CCO)CCO)c(Cl)c3)cc2C#N)CC1` [Example 5-19, tert-butyl 4-(5-{4-[bis(2-hydroxyethyl)carbamoyl]-3-chlorophenyl}-3-cyanopyridin-2-yl)piperazine-1-carboxylate], the Emax worked out at 93% in assay [1] (setting [3]) and 68% in assay [2] (setting [3]). For the same compound, the values for the EC50 in assay [1] and in assay [2] (setting [4]) were 102 nM and 2980 nM, respectively.

Regarding `CN(C)NC(=O)c1ccc(-c2cnc(N3CCN(C(=O)OC(C)(C)C)CC3)c(C#N)c2)cc1Cl` [Example 5-6, tert-butyl 4-(5-{3-chloro-4-[(2,2-dimethylhydrazino)carbonyl]phenyl}-3-cyanopyridin-2-yl)piperazine-1-carboxylate], the Emax in assay [1] (setting [3]) is 77%; in assay [2] (setting [3]), 43%. Besides, the EC50 in assay [1] was 435 nM; in assay [2] (setting [4]) it was 8780 nM.

As to `COc1ccccc1COC(=O)N1CCN(c2ncc(-c3ccc(C(=O)N(C)C)c(Cl)c3)cc2C#N)CC1` [Example 3-7, 2-methoxybenzyl 4-{5-[3-chloro-4-(dimethylcarbamoyl)phenyl]-3-cyanopyridin-2-yl}piperazine-1-carboxylate], the values for the Emax in assay [1] (setting [3]) and in assay [2] (setting [3]) were 85% and 41%, respectively. Further, the EC50 in assay [1] is 36 nM; in assay [2] (setting [4]), 8590 nM.

As for `CN(CCO)C(=O)c1ccc(-c2cnc(N3CCN(C(=O)OC(C)(C)C)CC3)c(C#N)c2)cc1Cl` [Example 5-1, tert-butyl-4-(5-{3-chloro-4-[(2-hydroxyethyl)(methyl)carbamoyl]phenyl}-3-cyanopyridin-2-yl)piperazine-1-carboxylate], the results for the Emax in assay [1] (setting [3]) and in assay [2] (setting [3]) were 80% and 68%, respectively. The EC50 worked out at 40 nM in assay [1] and 1260 nM in assay [2] (setting [4]).
